Measurements published in patent US12440496B2, “Natriuretic peptide receptor a agonists useful for the treatment of cardiometabolic diseases, kidney disease and diabetes” (Merck Sharp & Dohme LLC, priority 2019, dated 2025).
Where a name gives a salt, the structure may show the parent alone.

Target: T1, hNPRA (Homo sapiens, UniProt P16066)
T1 construct: expressed in transfected cells
T1 sequence (P16066 33-1061): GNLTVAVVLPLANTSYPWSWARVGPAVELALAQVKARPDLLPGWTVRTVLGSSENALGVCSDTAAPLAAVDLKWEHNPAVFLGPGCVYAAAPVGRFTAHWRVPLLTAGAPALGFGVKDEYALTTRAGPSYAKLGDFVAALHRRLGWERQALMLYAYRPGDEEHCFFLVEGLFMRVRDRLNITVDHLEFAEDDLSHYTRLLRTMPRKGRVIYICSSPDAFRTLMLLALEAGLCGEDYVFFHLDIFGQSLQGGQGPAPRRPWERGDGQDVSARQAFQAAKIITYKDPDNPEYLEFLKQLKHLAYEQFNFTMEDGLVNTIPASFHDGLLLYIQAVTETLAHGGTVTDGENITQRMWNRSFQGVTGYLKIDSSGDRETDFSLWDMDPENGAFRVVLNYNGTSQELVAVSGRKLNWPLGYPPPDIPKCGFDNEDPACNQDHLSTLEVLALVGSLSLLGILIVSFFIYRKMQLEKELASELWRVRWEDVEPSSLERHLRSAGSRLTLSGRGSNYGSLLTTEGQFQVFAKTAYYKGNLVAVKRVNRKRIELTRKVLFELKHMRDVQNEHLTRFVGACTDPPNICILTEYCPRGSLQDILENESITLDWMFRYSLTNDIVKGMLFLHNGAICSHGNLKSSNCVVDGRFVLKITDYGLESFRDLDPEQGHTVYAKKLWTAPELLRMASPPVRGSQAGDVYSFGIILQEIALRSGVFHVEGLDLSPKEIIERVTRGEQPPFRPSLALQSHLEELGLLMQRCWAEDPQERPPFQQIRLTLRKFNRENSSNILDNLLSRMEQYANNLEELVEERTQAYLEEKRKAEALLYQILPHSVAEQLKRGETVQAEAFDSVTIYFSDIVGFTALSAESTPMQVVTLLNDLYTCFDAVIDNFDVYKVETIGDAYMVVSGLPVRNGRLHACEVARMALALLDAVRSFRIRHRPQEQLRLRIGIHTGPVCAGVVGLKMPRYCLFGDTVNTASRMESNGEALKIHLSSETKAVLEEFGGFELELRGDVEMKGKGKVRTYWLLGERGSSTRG
Assay: NPRA Functional Cell Assay (cGMP HTRF, NPRA HEK JumpIn stable cells)
Format: cell-based
Conditions: cGMP production, 1 hour at 37° C., 10-point dose response
From the text: NPRA Functional Cell Assay
Assay Buffer components HEPES and Opti-MEM® I Reduced-Serum with Glutamine (no phenol red) were from Gibco/Invitrogen (Thermo Fisher Scientific, Waltham, MA USA). 3-Isobutyl-1-methylxanthine (IBMX) and 4-(3-Butoxy-4-methoxybenzyl) imidazolidin-2-one (RO20) were obtained from Sigma-Aldrich (St. Louis, MO, USA). DPBS (Dulbecco's phosphate-buffered saline) without Ca2+ and Mg2+ was purchased from GE Healthcare Bio-Sciences (Pittsburgh, PA, USA). 384 well white Optiplates were from Perkin Elmer (Atlantic Highlands, NJ, USA). Human ANP (Atrial Natriuretic Peptide) (1-28) was purchased from Sigma-Aldrich (Catalog #A1663) and rat ANP (1-28) from Bachem (Torrance, CA, USA) (Catalog #H2100). Human-BNP (Human-Brain Natriuretic Peptide) (1-32 AA) was purchased from American Peptide Company (Sunnyvale, CA, USA) (product No. 14-1-90). cGMP kits were purchased from Cisbio. The assay ready frozen (ARF) Human/rat/dog NPRA HEK JumpIn Stable frozen cells (low passage number 5-11) were prepared in-house.
Test compounds were titrated in DMSO in a 10-point dose response in a separate step followed by a 100-fold dilution into the reaction. Positive response for each assay was determined using 10 nM rat-ANP peptide (rat cells) or 50 nM h-ANP peptide (human and dog cells).
Cells were thawed, washed with DPBS and resuspended in assay buffer (Opti-MEM+Glutamine, phenol red free media, 10 mM HEPES, 100 uM IBMX and 100 uM RO20) that was warmed to 37° C. Cells were then transferred to microplates via a Microplate Combi dispenser at a density of 1500, 400 and 1200 cells/well for human, rat and dog cells respectively, followed by acoustic transfer (Echo) of compound.
(§1) Compounds and cells were incubated at 37° C. with 5% CO2 for 1 hour, after which the cells were lysed and cGMP was captured using a CisBio cGMP HTRF assay kit. The TRF signal was measured with an Envision plate reader (emission set to 615 and 665 nm) after 1 hour incubation at ambient temperature. The TRF signal was converted to [cGMP] through the use of a cGMP calibration curve on each microplate. EC50's were generated from the resulting dose response curves by use of a 4 parameter logistic algorithm.
Assay Buffer components HEPES and Opti-MEM® I Reduced-Serum with Glutamine (no phenol red) were from Gibco/Invitrogen. 3-Isobutyl-1-methylxanthine (IBMX) and 4-(3-Butoxy-4-methoxybenzyl) imidazolidin-2-one (RO20) were obtained from Sigma. DPBS (Dulbecco's phosphate-buffered saline) without Ca2+ and Mg2+ was purchased from GE Healthcare Bio-Sciences (Pittsburgh, PA, USA). 384 well white Optiplates were from Perkin Elmer (Atlantic Highlands, NJ, USA). Human ANP (1-28) was purchased from Sigma (A1663) and rat ANP (1-28) from Bachem (H2100). Human-BNP (1-32 AA) was purchased from American Peptide Company (Sunnyvale, CA, USA) (product No. 14-1-90). cGMP kits were purchased from Cisbio (Bedford, MA, USA). The assay ready frozen (ARF) Human/rat/dog NPRA HEK JumpIn Stable frozen cells (low passage number 5-11) were prepared in-house.
as §1, with “Envision®” for “Envision”, “reader (Perkin Elmer)” for “reader”
hNPRA EC50 (nM) were determined for the compounds of Example 1 through Example 273 and are reported in the Experimental section of this application.

| EC50 | Structure (SMILES) |
| --- | --- |
| > 2 µM | CC(C)(C)[C@H]1CCc2nc3sc(C(=O)N[C@H](CCN)c4ccccc4)cc3cc2C1 [Example 229, (S)-N-((R)-3-amino-1-phenylpropyl)-6-(tert-butyl)-5,6,7,8-tetrahydrothieno[2,3-b]quinoline-2-carboxamide] |
| 0.447 µM | CC(C)(C)[C@H]1CCc2nc3sc(C(=O)N[C@H](CCN4CC[C@@H](C(=O)O)[C@@H](F)C4)c4ccc(-c5cnc(O)c(F)c5)cc4)nc3cc2C1 (racemic) [Example 201, rac-(3R,4S)-3-fluoro-1-[rac-(3R)-3-[4-(5-fluoro-6-hydroxy-3-pyridyl)phenyl]-3-[[rac-(7S)-7-tert-butyl-5,6,7,8-tetrahydrothiazolo[5,4-b]quinoline-2-carbonyl]amino]propyl]piperidin-1-ium-4-carboxylic acid; formate] |
| 0.754 µM | CN1CC(NC(=O)c2cccc([C@@H](CCN3CCC(C(=O)O)C3)NC(=O)c3nc4cc5c(nc4s3)CC[C@H](C(C)(C)C)C5)c2)C1 (mixture of isomers) [Example 112, rac-(3R)-1-[rac-(3R)-3-[3-[(1-methylazetidin-1-ium-3-yl)carbamoyl]phenyl]-3-[rac-(7S)-7-tert-butyl-5,6,7,8-tetrahydrothiazolo[5,4-b]quinoline-2-carbonyl]amino]propyl]pyrrolidine-3-carboxylic acid; 2,2,2-trifluoroacetate] |
| 1.4 µM | Cc1cc(-c2ccc([C@@H](CCN3CCCCC3)NC(=O)c3cc4cc5c(nc4s3)CC[C@H](C(C)(C)C)C5)cc2)cnc1O [Example 239, (6S)-6-tert-butyl-N-{(1R)-1-[4-(6-hydroxy-5-methylpyridin-3-yl)phenyl]-3-piperidin-1-ylpropyl}-5,6,7,8-tetrahydrothieno[2,3-b]quinoline-2-carboxamide] |
| 0.637 µM | CC(C)(C)[C@H]1CCc2nc3sc(C(=O)N[C@H](CCN4CCC(C(=O)O)CC4)c4cccc(C(=O)NC5CNC5)c4)nc3cc2C1 (racemic) [Example 122, 1-[rac-(3R)-3-[3-(azetidin-1-ium-3-ylcarbamoyl)phenyl]-3-[rac-(7S)-7-tert-butyl-5,6,7,8-tetrahydrothiazolo [5,4-b]quinoline-2-carbonyl]amino]propyl] piperidine-4-carboxylic acid; 2,2,2-trifluoroacetate] |
| 1.98 µM | CN(C)S(=O)(=O)Nc1cccc([C@@H](CCN2CCC(O)CC2)NC(=O)c2nc3cc4c(nc3s2)CC[C@H](C(C)(C)C)C4)c1 (mixture of isomers) [Example 216, (7S)-7-tert-butyl-N-[rac-(1R)-1-[3-(dimethylsulfamoylamino)phenyl]-3-(4-hydroxypiperidin-1-ium-1-yl)propyl]-5,6,7,8-tetrahydrothiazolo[5,4-b]quinoline-2-carboxamide; formate] |
| 1.44 µM | CC(C)(C)[C@H]1CCc2nc3sc(C(=O)N[C@H](CCN4CCC(O)CC4)c4ccc(-c5ccc(O)cc5)cc4)nc3cc2C1 (racemic) [Example 129, rac-(7S)-7-tert-butyl-N-[rac-(1R)-1-[4-(4-hydroxyphenyl)phenyl]-3-(4-hydroxypiperidin-1-ium-1-yl)propyl]-5,6,7,8-tetrahydrothiazolo[5,4-b] quinoline-2-carboxamide; 2,2,2-trifluoroacetate] |
| 0.176 µM | CC(C)(C)[C@H]1CCc2nc3sc(C(=O)N[C@H](CCN4CCC(O)CC4)c4cccc(C(=O)N[C@H]5CNC[C@@H]5O)c4)nc3cc2C1 (racemic) [Example 137, rac-(7S)-7-tert-butyl-N-[rac-(1R)-3-(4-hydroxy-1-piperidyl)-1-[3-[[rac-(3S,4S)-4-hydroxypyrrolidin-3-yl]carbamoyl]phenyl]propyl]-5,6,7,8-tetrahydrothiazolo[5,4-b]quinoline-2-carboxamide] |
| 0.863 µM | Cn1cnnc1-c1ccc([C@@H](CCN2CCC(O)CC2)NC(=O)c2nc3cc4c(nc3s2)CC[C@H](C(C)(C)C)C4)cc1 (racemic) [Example 170, rac-(7S)-7-tert-butyl-N-[rac-(1R)-3-(4-hydroxy-1-piperidyl)-1-[4-(4-methyl-1,2,4-triazol-3-yl)phenyl]propyl]-5,6,7,8-tetrahydrothiazolo[5,4-b]quinoline-2-carboxamide] |
| 1.39 µM | CN(C)CC[C@@H](NC(=O)c1nc2cc3c(nc2s1)CC[C@H](C(C)(C)C)C3)c1cccc(C(=O)N2CCNCC2)c1 (racemic) [Example 97, rac-(7S)-7-tert-butyl-N-[rac-(1R)-3-(dimethyl-amino)-1-[3-(piperazine-1-carbonyl)phenyl]propyl]-5,6,7,8-tetrahydrothiazolo[5,4-b] quinoline-2-carboxamide] |
| 1.3 µM | CC1(O)CN(CC[C@@H](NC(=O)c2cc3cc4c(nc3s2)CC[C@H](C(C)(C)C)C4)c2ccc(-c3ccc(=O)[nH]c3)cc2)C1 (racemic) [Example 65, rac-(6S)-6-tert-butyl-N-[rac-(1R)-3-(3-hydroxy-3-methyl-azetidin-1-ium-1-yl)-1-[4-(6-oxo-1H-pyridin-3-yl)phenyl]propyl]-5,6,7,8-tetrahydrothieno[2,3-b]quinoline-2-carboxamide;formate] |
| 0.328 µM | CC(C)(C)[C@H]1CCc2nc3sc(C(=O)N[C@H](CCN4CCC(CO)C4)c4ccc(-c5ccc(=O)[nH]c5)cc4)nc3cc2C1 (mixture of isomers) [Example 74, rac-(7S)-7-tert-butyl-N-[rac-(1R)-3-[3-(hydroxymethyl)pyrrolidin-1-yl]-1-[4-(6-oxo-1H-pyridin-3-yl)phenyl]propyl]-5,6,7,8-tetrahydrothiazolo[5,4-b]quinoline-2-carboxamide] |
| 6.32 µM | CC(C)(C)[C@H]1CCc2nc3sc(C(=O)NC(CCN4CCNCC4)c4ccccc4)cc3cc2C1 (stereo partly drawn) [Example 245, (6S)-6-tert-butyl-N-(1-phenyl-3-piperazin-1-ylpropyl)-5,6,7,8-tetrahydrothieno[2,3-b]quinoline-2-carboxamide] |
